From patent US20250144067A1, “PERSONALIZED STARVATION THERAPY FOR CANCER” (Faeth Therapeutics, Inc., priority 2021, published 2025)
Structures can show the parent of a compound that is named as a salt. Where two headings read alike, the source gives them in different places.

How the values were obtained:
[1] = tested on: NCI-H292 lung cancer cells; experiment: FDA drug screening, complete media vs cholesterol-free media without statin (TABLE 1); format: cell-based, human
[2] = tested on: NCI-H292 lung cancer cells; experiment: FDA drug screening, complete media vs cholesterol-free media with simvastatin (TABLE 2); format: cell-based, human
[3] = Complete minus Cholesterol-free, >0 enhanced anti-cancer activity, about 0 neutral, <0 antagonist
[4] = NCI-H292 cells, cholesterol-free media without statin
[5] = NCI-H292 cells, cholesterol-free media with simvastatin 0.04 μM, FDA drug library screen (TABLE 2)
[6] = NCI-H292 cells, complete media, FDA drug library screen (TABLE 2)
[7] = complete media minus cholesterol-free media + simvastatin (0.04 μM), >0 enhanced anti-cancer activity, about 0 neutral, <0 antagonist
[8] = complete vs cholesterol-free media, greater than 0 enhanced anti-cancer activity, about 0 neutral, below 0 antagonists
[9] = NCI-H292 cells, cholesterol-free media with simvastatin 0.04 μM, cell growth value in FDA drug screen
[10] = NCI-H292 cells, complete media, cell growth value in FDA drug screen
[11] = complete media minus cholesterol-free media + simvastatin, >0 enhanced anti-cancer activity, about 0 neutral, <0 antagonist
[12] = NCI-H292 cells, FDA drug library screen, cholesterol-free media without statin
[13] = NCI-H292 cells, FDA drug library screen, complete media
[14] = NCI-H292 cells, FDA library drug in cholesterol-free media with simvastatin 0.04 μM
[15] = NCI-H292 cells, FDA library drug in complete media
[16] = complete media vs cholesterol-free media + simvastatin (0.04 μM), >0 enhanced anti-cancer activity, about 0 neutral, <0 antagonist
[17] = NCI-H292 cells, cholesterol-free media without statin, FDA drug library screen
[18] = NCI-H292 cells, complete media, FDA drug library screen
[19] = complete vs cholesterol-free media, >0 enhanced anti-cancer activity, about 0 neutral, <0 antagonist
[20] = Complete minus Cholesterol-free, […]
[21] = NCI-H292 cells, drug in cholesterol-free media with simvastatin 0.04 μM
[22] = NCI-H292 cells, drug in complete media
[23] = complete media vs cholesterol-free media + simvastatin (0.04 μM), […]
[24] = NCI-H292 cells, FDA drug library screen, cholesterol-free media with simvastatin 0.04 μM

## CCCCCCCCOc1ccccc1C(=O)Nc1ccc(C(=O)OCC[N+](C)(CC)CC)cc1.[Br-] [Otilonium (bromide)]
[1]
  Cholesterol-free: 1.132
  Complete: 0.8071
  Difference: −0.32
[2]
  Cholesterol-free media + simvastatin (0.04 μM): 0.9764
  Complete Media: 1.024
  Difference: 0.05

## O=C1[C@@H]2[C@H]3CC[C@H](C3)[C@@H]2C(=O)N1CCCCN1CCN(c2ncccn2)CC1 [Tandospirone]
[1]; [3]
  Difference: −0.26
[1]; [4]
  Cholesterol-free: 1.451
[1]; NCI-H292 cells, complete media
  Complete: 1.192
[2]; [5]
  Cholesterol-free media + simvastatin (0.04 μM): 0.8591
[2]; [6]
  Complete Media: 0.8479
[2]; [7]
  Difference: −0.01

## O=c1ccc2ccc(OCCCCN3CCN(c4cccc5sccc45)CC3)cc2[nH]1 [Brexpiprazole]
[1]; [4]
  Cholesterol-free: 0.9917
[1]; NCI-H292 cells, complete media
  Complete: 0.6405
[1]; [8]
  Difference: −0.35
[2]; [9]
  Cholesterol-free media + simvastatin (0.04 μM): 0.8945
[2]; [10]
  Complete Media: 1.024
[2]; [11]
  Difference: 0.13

## CCCCC[C@](C)(O)/C=C/[C@@H]1[C@@H](C/C=C\CCCC(=O)O)[C@@H](O)C[C@H]1O.NC(CO)(CO)CO [Carboprost (tromethamine)]
[1]; Complete minus Cholesterol-free, greater than 0 enhanced anti-cancer activity, about 0 neutral, below 0 antagonist
  Difference: −0.14
[1]; [12]
  Cholesterol-free: 1.222
[1]; [13]
  Complete: 1.08
[2]; [14]
  Cholesterol-free media + simvastatin (0.04 μM): 1.591
[2]; [15]
  Complete Media: 1.306
[2]; [16]
  Difference: −0.29

## CC(C)(C)NC[C@H](O)COc1cccc2c1CCCC2=O [Levobunolol (hydrochloride)]
[1]; [17]
  Cholesterol-free: 0.4904
[1]; [18]
  Complete: 1.134
[1]; [19]
  Difference: 0.64
[2]; [5]
  Cholesterol-free media + simvastatin (0.04 μM): 0.9864
[2]; [6]
  Complete Media: 0.921
[2]; [7]
  Difference: −0.07

## CN[C@H]1C(=O)N[C@@H]2Cc3ccc(cc3)Oc3cc4cc(c3O[C@@H]3O[C@H](C(=O)O)[C@@H](O)[C@H](O)[C@H]3NC(=O)CCCCCCCCC(C)C)Oc3ccc(cc3Cl)[C@@H](O)[C@@H]3NC(=O)[C@H](NC(=O)[C@@H]4NC(=O)[C@@H](NC2=O)c2cc(cc(O)c2Cl)Oc2cc1ccc2O)c1ccc(O)c(c1)-c1c(O[C@H]2O[C@H](CO)[C@@H](O)[C@H](O)[C@@H]2O)cc(O)cc1[C@@H](C(=O)NCCCN(C)C)NC3=O [Dalbavancin (hydrochloride)]
[1]; [20]
  Difference: −0.27
[1]; [4]
  Cholesterol-free: 1.639
[1]; NCI-H292 cells, complete media
  Complete: 1.366
[2]; [21]
  Cholesterol-free media + simvastatin (0.04 μM): 1.058
[2]; [22]
  Complete Media: 0.8779
[2]; [23]
  Difference: −0.18

## [O-][n+]1ccccc1[S-].[O-][n+]1ccccc1[S-].[Zn+2] [Zinc Pyrithione]
[1]
  Cholesterol-free: 0.0139
  Complete: 0.007475
  Difference: −0.01
[2]
  Cholesterol-free media + simvastatin (0.04 μM): 0.004251
  Complete Media: −0.04835
  Difference: −0.05

## Cc1cc(NC(=O)C2=C(O)c3ccccc3S(=O)(=O)N2C)no1 [Isoxicam]
[1]; Complete minus Cholesterol-free, greater than 0 enhanced anti-cancer activity, about 0 neutral, below 0 antagonists
  Difference: −0.71
[1]; NCI-H292 cells in cholesterol-free media without statin
  Cholesterol-free: 1.72
[1]; NCI-H292 cells in complete media
  Complete: 1.015
[2]; [21]
  Cholesterol-free media + simvastatin (0.04 μM): 1.282
[2]; [22]
  Complete Media: 1.064
[2]; [16]
  Difference: −0.22

## CC[C@@]1(O)C(=O)OCc2c1cc1n(c2=O)Cc2c-1nc1ccccc1c2CCNC(C)C [Belotecan (hydrochloride)]
[1]; [3]
  Difference: 0.00
[1]; [17]
  Cholesterol-free: 0.00566
[1]; [18]
  Complete: 0.01027
[2]; [5]
  Cholesterol-free media + simvastatin (0.04 μM): −0.0005237
[2]; [6]
  Complete Media: 0.007701
[2]; [7]
  Difference: 0.01

## CC1(C)CC[C@]2(C(=O)O)CC[C@]3(C)C(=CC[C@@H]4[C@@]5(C)CC[C@H](O)C(C)(C)[C@@H]5CC[C@]43C)[C@@H]2C1 [Oleanolic Acid]
[1]; [3]
  Difference: −0.19
[1]; [4]
  Cholesterol-free: 1.001
[1]; NCI-H292 cells, complete media
  Complete: 0.8111
[2]; [24]
  Cholesterol-free media + simvastatin (0.04 μM): 1.063
[2]; [13]
  Complete Media: 1.721
[2]; [11]
  Difference: 0.66

## COc1ccc2c(O[C@@H]3C[C@H]4C(=O)N[C@]5(C(=O)NS(=O)(=O)C6CC6)C[C@H]5/C=C\CCCCN(C)C(=O)[C@@H]4C3)cc(-c3nc(C(C)C)cs3)nc2c1C [Simeprevir]
[1]; [17]
  Cholesterol-free: 0.5666
[1]; [18]
  Complete: 0.795
[1]; [19]
  Difference: 0.23
[2]; [24]
  Cholesterol-free media + simvastatin (0.04 μM): 0.845
[2]; [13]
  Complete Media: 0.7552
[2]; [16]
  Difference: −0.09

## CCC(CC)O[C@@H]1C=C(C(=O)O)C[C@H](N)[C@H]1NC(C)=O [Oseltamivir acid]
[1]; [4]
  Cholesterol-free: 1.419
[1]; NCI-H292 cells, complete media
  Complete: 0.9754
[1]; [8]
  Difference: −0.44
[2]; [9]
  Cholesterol-free media + simvastatin (0.04 μM): 0.944
[2]; [10]
  Complete Media: 1.053
[2]; [11]
  Difference: 0.11

## CO/N=C(\C(=O)N[C@@H]1C(=O)N2C(C(=O)[O-])=C(CSc3nc(C)c(CC(=O)[O-])s3)CS[C@H]12)c1csc(N)n1.[Na+].[Na+] [Cefodizime (sodium)]
[1]; [3]
  Difference: 0.06
[1]; [17]
  Cholesterol-free: 1.009
[1]; [18]
  Complete: 1.069
[2]; [21]
  Cholesterol-free media + simvastatin (0.04 μM): 1.29
[2]; [22]
  Complete Media: 1.088
[2]; [16]
  Difference: −0.20

## CC(=O)Oc1cc2c(s1)CCN(C(C(=O)C1CC1)c1ccccc1F)C2 (stereo not drawn) [Prasugrel]
[1]; [17]
  Cholesterol-free: 1.483
[1]; [18]
  Complete: 1.769
[1]; [19]
  Difference: 0.29
[2]; [24]
  Cholesterol-free media + simvastatin (0.04 μM): 1.012
[2]; [13]
  Complete Media: 0.9091
[2]; [16]
  Difference: −0.10

## O=C([O-])CCSC[C@H]1O[C@@H]2O[C@H]3[C@H](O)[C@@H](O)[C@@H](O[C@H]4[C@H](O)[C@@H](O)[C@@H](O[C@H]5[C@H](O)[C@@H](O)[C@@H](O[C@H]6[C@H](O)[C@@H](O)[C@@H](O[C@H]7[C@H](O)[C@@H](O)[C@@H](O[C@H]8[C@H](O)[C@@H](O)[C@@H](O[C@H]9[C@H](O)C(O)[C@@H](O[C@H]1[C@H](O)[C@H]2O)O[C@@H]9CSCCC(=O)[O-])O[C@@H]8CSCCC(=O)[O-])O[C@@H]7CSCCC(=O)[O-])O[C@@H]6CSCCC(=O)[O-])O[C@@H]5CSCCC(=O)[O-])O[C@@H]4CSCCC(=O)[O-])O[C@@H]3CSCCC(=O)[O-].[Na+].[Na+].[Na+].[Na+].[Na+].[Na+].[Na+].[Na+] (stereo partly drawn) [Sugammadex (sodium)]
[1]; [20]
  Difference: −0.11
[1]; [12]
  Cholesterol-free: 1.596
[1]; [13]
  Complete: 1.487
[2]; NCI-H292 cells, cholesterol-free media with simvastatin 0.04 μM, […]
  Cholesterol-free media + simvastatin (0.04 μM): 0.9061
[2]; NCI-H292 cells, complete media, […]
  Complete Media: 0.9946
[2]; complete media minus cholesterol-free media + simvastatin, […]
  Difference: 0.09

## O=C(O)c1cn(C2CC2)c2cc(N3CCNCC3)c(F)cc2c1=O [Ciprofloxacin]
[1]; [4]
  Cholesterol-free: 1.503
[1]; NCI-H292 cells, complete media
  Complete: 1.066
[1]; [8]
  Difference: −0.44
[2]; [9]
  Cholesterol-free media + simvastatin (0.04 μM): 0.9642
[2]; [10]
  Complete Media: 1.043
[2]; [11]
  Difference: 0.08

## CCN(CC)CCNC(=O)c1ccc(NC(C)=O)cc1 [N-Acetylprocainamide]
[1]; [17]
  Cholesterol-free: 1.279
[1]; [18]
  Complete: 1.656
[1]; complete vs cholesterol-free media, […]
  Difference: 0.38
[2]; [24]
  Cholesterol-free media + simvastatin (0.04 μM): 0.9234
[2]; [13]
  Complete Media: 0.8479
[2]; [23]
  Difference: −0.08

## CCc1cc(/C(C)=N/OCc2ccc(C3CCCCC3)c(C(F)(F)F)c2)ccc1CN1CC(C(=O)O)C1 [Siponimod]
[1]; [3]
  Difference: −0.01
[1]; [17]
  Cholesterol-free: 0.9324
[1]; [18]
  Complete: 0.9251
[2]; [14]
  Cholesterol-free media + simvastatin (0.04 μM): 1.121
[2]; [15]
  Complete Media: 0.7701
[2]; [16]
  Difference: −0.35

## Cc1cc(-n2c(=O)[nH]c(=O)n(C)c2=O)ccc1Oc1ccc(SC(F)(F)F)cc1 [Toltrazuril]
[1]; [3]
  Difference: −0.07
[1]; [17]
  Cholesterol-free: 0.9718
[1]; [18]
  Complete: 0.9012
[2]; [24]
  Cholesterol-free media + simvastatin (0.04 μM): 0.9815
[2]; [13]
  Complete Media: 0.8466
[2]; [16]
  Difference: −0.13
